Measurements: ChEMBL document CHEMBL5634130, “Exploring the structural-activity relationship of hexahydropyrazino[1,2-d]pyrido[3,2-b][1,4]oxazine derivatives as potent and orally-bioavailable PARP7 inhibitors” (Eur J Med Chem, 2023)
The source made the active and inactive calls. The calls are words filed in the database; no cut-off is given here.

Columns and labels:
[1] = system: NCI-H1373; assay: Antiproliferative activity against human NCI-H1373 cells assessed as inhibition of cell viability incubated for 4 days by luminescence based assay; conditions: NCI-H1373, 96 h
[2] = target: T1, Protein mono-ADP-ribosyltransferase TIPARP (Homo sapiens, UniProt Q7Z3E1); assay: Inhibition of PARP7 (unknown origin) using histone as substrate incubated for 1 hr by chemiluminescence assay
T1 sequence (Q7Z3E1 whole entry): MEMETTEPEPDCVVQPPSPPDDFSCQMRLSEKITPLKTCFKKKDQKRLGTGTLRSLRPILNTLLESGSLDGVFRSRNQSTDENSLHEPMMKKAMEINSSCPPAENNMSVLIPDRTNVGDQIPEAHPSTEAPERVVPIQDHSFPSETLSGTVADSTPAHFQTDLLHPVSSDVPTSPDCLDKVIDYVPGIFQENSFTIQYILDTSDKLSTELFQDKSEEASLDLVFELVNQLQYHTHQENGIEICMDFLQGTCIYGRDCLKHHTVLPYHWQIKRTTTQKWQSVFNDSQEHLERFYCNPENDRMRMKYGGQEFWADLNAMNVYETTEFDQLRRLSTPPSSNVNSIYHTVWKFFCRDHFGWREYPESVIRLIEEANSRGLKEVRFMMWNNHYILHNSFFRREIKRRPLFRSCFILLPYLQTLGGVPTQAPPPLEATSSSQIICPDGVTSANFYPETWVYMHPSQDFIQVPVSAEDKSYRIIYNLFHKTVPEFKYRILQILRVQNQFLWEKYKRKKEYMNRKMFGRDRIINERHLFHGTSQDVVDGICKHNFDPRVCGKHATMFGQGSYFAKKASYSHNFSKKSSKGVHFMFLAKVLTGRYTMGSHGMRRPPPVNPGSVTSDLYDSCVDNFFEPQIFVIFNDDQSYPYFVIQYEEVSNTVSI

[3] = Tmax in fasted ICR mouse at 10 mg/kg, po measured for 24 hrs by LC-MS analysis; type: ADME, organism-based; conditions: in vivo
[4] = AUC in fasted ICR mouse at 2 mg/kg, iv measured for 24 hrs by LC-MS analysis; type: ADME, organism-based; conditions: in vivo
[5] = Half life in fasted ICR mouse at 10 mg/kg, po measured for 24 hrs by LC-MS analysis; type: ADME, organism-based; conditions: in vivo
[6] = Clearance in fasted ICR mouse at 2 mg/kg, iv measured for 24 hrs by LC-MS analysis; type: ADME, organism-based; conditions: in vivo
[7] = Half life in fasted ICR mouse at 2 mg/kg, iv measured for 24 hrs by LC-MS analysis; type: ADME, organism-based; conditions: in vivo
[8] = AUC in fasted ICR mouse at 10 mg/kg, po measured for 24 hrs by LC-MS analysis; type: ADME, organism-based; conditions: in vivo
[9] = Cmax in fasted ICR mouse at 10 mg/kg, po measured for 24 hrs by LC-MS analysis; type: ADME, organism-based; conditions: in vivo
[10] = Volume of distribution at steady state in fasted ICR mouse at 2 mg/kg, iv measured for 24 hrs by LC-MS analysis; type: ADME, organism-based; conditions: in vivo, read-out: Vdss
[11] = Oral bioavailability in fasted ICR mouse at 10 mg/kg measured for 24 hrs by LC-MS analysis; type: ADME, organism-based; conditions: in vivo
[12] = system: MDA-MB-436; assay: Antiproliferative activity against human MDA-MB-436 cells assessed as inhibition of cell viability at 0.1 uM incubated for 7 days by luminescence based assay; type: functional; conditions: time 7.0 day
[13] = system: RAW264.7; assay: Inhibition of PARP7 in mouse RAW264.7 cells assessed as increase in IFN-beta level incubated for 24 hrs by ELISA; type: cell-based
[14] = Toxicity in […] SCID mouse model xenografted with human NCI-H1373 cells assessed as body weight loss at 30 mg/kg, po measured for 21 days; type: organism-based; conditions: in vivo, 504 h, time 21 day
[15] = system: NCI-H1373; assay: Antitumor activity against human NCI-H1373 cells xenografted in […] SCID mouse model assessed as tumor growth inhibition at 30 mg/kg, po administered everyday measured after 21 days relative to control; type: functional; conditions: NCI-H1373, 504 h, time 21 day, read-out: TGI
[16] = Toxicity in […] SCID mouse model xenografted with human NCI-H1373 cells assessed as animal death at 30 mg/kg, po measured for 21 days; type: organism-based; conditions: in vivo, 504 h, time 21 day

Structure (SMILES): C[C@@H](CN1CCC(C(=O)N2CCN3c4ncc(C(F)(F)F)cc4OC[C@@H]3C2)C1)Nc1cn[nH]c(=O)c1C(F)(F)F (some centres undefined)
- IC50 [1]: 908 nM

Structure (SMILES): O=C(CCOC[C@@H]1CCCN1c1cn[nH]c(=O)c1C(F)(F)F)N1CCN2c3ncc(C(F)(F)F)cc3OC[C@@H]2C1
- IC50 [2]: 13.8 nM
- IC50 [1]: 310 nM

Structure (SMILES): CC(COCCC(=O)N1CCN2c3ncc(C(F)(F)F)cc3OC[C@H]2C1)Nc1cn[nH]c(=O)c1C(F)(F)F (mixture of isomers)
- IC50 [2]: 12.8 nM
- IC50 [1]: 180 nM

Structure (SMILES): C[C@@H](COCCC(=O)N1CCN2c3ncc(C(F)(F)F)cc3OC[C@@H]2C1)Nc1cn[nH]c(=O)c1C(F)(F)F
- Tmax [3]: 15 min
- AUC at 24 h [4]: 274 ng·h/mL
- t1/2 [5]: 120 min
- clearance [6]: 61 mL/min/kg
- IC50 [2]: 1.86 nM
- half-life [7]: 30 min
- AUC [8]: 306 ng·h/mL
- Cmax [9]: 408 ng/mL
- Vd [10]: 0.104 L/kg
- bioavailability [11]: 22.3%
- IC50 [1]: 77 nM

Structure (SMILES): C[C@@H](COc1cnc(N2CCN3c4ncc(C(F)(F)F)cc4OC[C@@H]3C2)nc1)Nc1cn[nH]c(=O)c1C(F)(F)F
- IC50 [1]: 1950 nM

Structure (SMILES): C[C@@H](COCCC(=O)N1CCN2c3ncc(F)cc3OCC2C1)Nc1cn[nH]c(=O)c1C(F)(F)F (some centres undefined)
- IC50 [1]: 694 nM

Structure (SMILES): C[C@@H](COCCC(=O)N1CCN2c3ncc(C#N)cc3OCC2C1)Nc1cn[nH]c(=O)c1C(F)(F)F (some centres undefined)
- IC50 [1]: 255 nM

Structure (SMILES): CC(COC[C@H](C)Nc1cn[nH]c(=O)c1C(F)(F)F)C(=O)N1CCN2c3ncc(C(F)(F)F)cc3OC[C@@H]2C1 (some centres undefined)
- IC50 [1]: 973 nM

Structure (SMILES): C[C@@H](COCCC(=O)N1CCN2c3ncc(C(F)(F)F)cc3OC[C@@H]2C1)Oc1cn[nH]c(=O)c1C(F)(F)F
- Activity [12]: inactive
- Tmax [3]: 15 min
- AUC at 24 h [4]: 682 ng·h/mL
- inhibition [13]: Active
- t1/2 [5]: 264 min
- Activity [14]: Non-Toxic
- clearance [6]: 50.6 mL/min/kg
- IC50 [2]: 1.75 nM
- half-life [7]: 102 min
- inhibition in vivo at 30 mg/kg [15]: 62.4%
- AUC [8]: 1835 ng·h/mL
- Cmax [9]: 1840 ng/mL
- Vd [10]: 0.668 L/kg
- Activity [16]: Non-Toxic
- bioavailability [11]: 53.9%
- IC50 [1]: 15 nM

Structure (SMILES): C[C@@H](COCCC(=O)N1CCN2c3ncc(C(F)(F)F)cc3OC[C@H]2C1)Nc1cn[nH]c(=O)c1C(F)(F)F
- IC50 [2]: 3.3 nM
- IC50 [1]: 85 nM

Structure (SMILES): C[C@@H](CN1CC(C(=O)N2CCN3c4ncc(C(F)(F)F)cc4OC[C@@H]3C2)C1)Nc1cn[nH]c(=O)c1C(F)(F)F
- IC50 [1]: > 3000 nM

Structure (SMILES): CC(COCCC(=O)N1CCN2c3ncc(C(F)(F)F)cc3OCC2C1)Nc1cn[nH]c(=O)c1C(F)(F)F (racemic)
- IC50 [2]: 10.3 nM
- IC50 [1]: 175 nM

Structure (SMILES): C[C@@H](COCCC(=O)N1CCN2c3ncc(Cl)cc3OCC2C1)Nc1cn[nH]c(=O)c1C(F)(F)F (some centres undefined)
- IC50 [1]: 106 nM

Structure (SMILES): O=C(CCOC[C@@H]1CCN1c1cn[nH]c(=O)c1C(F)(F)F)N1CCN2c3ncc(Cl)cc3OC[C@@H]2C1
- Activity [12]: inactive
- Tmax [3]: 15 min
- AUC at 24 h [4]: 421 ng·h/mL
- inhibition [13]: Active
- t1/2 [5]: 126 min
- clearance [6]: 49.4 mL/min/kg
- IC50 [2]: 0.66 nM
- half-life [7]: 36 min
- AUC [8]: 544 ng·h/mL
- Cmax [9]: 400 ng/mL
- Vd [10]: 0.638 L/kg
- bioavailability [11]: 25.8%
- IC50 [1]: 14.8 nM

Structure (SMILES): O=C(CCOCC1CCN1c1cn[nH]c(=O)c1C(F)(F)F)N1CCN2c3ncc(C(F)(F)F)cc3OC[C@@H]2C1 (some centres undefined)
- IC50 [2]: 0.71 nM
- IC50 [1]: 6 nM

Structure (SMILES): CC(COCCC(=O)N1CCN2c3ncc(C(F)(F)F)cc3OC[C@@H]2C1)Nc1cn[nH]c(=O)c1C(F)(F)F (mixture of isomers)
- IC50 [2]: 9.4 nM
- IC50 [1]: 156 nM

Structure (SMILES): Cc1cnc2c(c1)OCC1CN(C(=O)CCOC[C@H](C)Nc3cn[nH]c(=O)c3C(F)(F)F)CCN21 (some centres undefined)
- IC50 [1]: 954 nM

Structure (SMILES): C[C@@H](COCCC(=O)N1CCN2c3ncc(C(F)(F)F)cc3OCC2C1)Nc1cn[nH]c(=O)c1C(F)(F)F (mixture of isomers)
- IC50 [2]: 2.1 nM
- IC50 [1]: 88 nM

Structure (SMILES): O=C(CCOC1CC(Nc2cn[nH]c(=O)c2C(F)(F)F)C1)N1CCN2c3ncc(C(F)(F)F)cc3OC[C@@H]2C1 (some centres undefined)
- IC50 [2]: 63 nM
- IC50 [1]: 398 nM
